These results are taken from paper PMC7002685, “Inhibition of vascular calcification by inositol phosphates derivatized with ethylene glycol oligomers” (Nature Communications, 2020).

The nature of series [1]: PK s.c. in rats with vitamin D and warfarin-induced VC. Format: in vivo. As to conditions: Sprague-Dawley, rat, plasma, sc, 50 mg/kg, 50 mg/kg s.c., Cardiovascular calcification model. The method, then:
Moreover, the systemic exposure of the compound after s.c. administration was assessed in rats with VC (Fig. 4f, Supplementary Table 3).
To study PK in rats presenting with VC, plasma samples were used from a sub-group of the study where calcification was induced with vitamin D and warfarin treatment.
The bioanalytical method for (OEG2)2-IP4 in rat plasma was further optimized, qualified, and applied to the comparative PK study in adenine and high-phosphate diet-induced VC vs. vitamin D-induced VC animals. The LC-MS/MS analyses were carried out using a Dionex Ultimate RSLC ultra-high-pressure liquid chromatography (UHPLC) system (Thermo Fisher Scientific) coupled with a TSQ Quantiva^TM triple quadrupole mass spectrometer. The samples were stored at 5 °C in the autosampler prior to and during the analyses. […] Gradient elution (solvent A, 20 mM ammonium acetate in water (pH 5); solvent B, ACN) was used according to the program reported in Supplementary Table 18. The injection volume was 10 µL. MS/MS parameters (MRM acquisition, cycle time 0.2 s) for (OEG2)2-IP4 are reported in Supplementary Table 19 and the ESI source, working in negative ionization mode, applied the following parameters: static spray voltage 3000 V ion transfer tube and vaporizer temperatures at 400 and 100 °C, respectively; sheath and auxiliary gas (nitrogen) flow rates at 80 and 3 (arbitrary units). For the quantitative determination in rat plasma, product ion m/z 158.9 was selected because it provided the best sensitivity and selectivity. Calibration curve and quality control samples were prepared by adding 2 μL of working solution to 38 μL rat blank K3EDTA plasma (Biochemed, Winchester, VA) and precipitating plasma protein by addition of 120 μL of MeOH including internal standard OEG11-IP5. Samples were vortexed 1 min and centrifuged at (22,000 × g, 4 °C, 10 min). Supernatants (90 μL) were then transferred into a glass vial with insert and injected onto LC-MS/MS system. Both in adenine and high-phosphate diet-induced VC and vitamin D-induced VC rat PK samples were prepared for analysis in an analogous manner as done for spiked samples (assay volume 40 μL). The LLOQ and LOD in rat plasma for (OEG2)2-IP4 were 50 and 10 ng/mL, respectively. The ULOQ and detection was 50,000 ng/mL.

Series [2] concerns GABAA, Ro-15-1788, Hippocampus. In words: Off-target 226630. In kind it is binding, Rat. As to conditions: 10 µM. The method, then: (§1) The potential off-target activity of 10 µM (OEG2)2-IP4 was assessed against a panel of 87 enzymes, receptors, or ion channels that are used in standard safety pharmacology screens.
(§2) 3.2. Off-target screening assay
(§3) The experiments were conducted by a contract research organization (Eurofins Panlabs Discovery
(§4) Services Taiwan, Ltd.) and details on the respective assays can be retrieved via the catalog number
(§5) provided in Supplementary Table 11 from the company’s webpage
(§6) (https://www.eurofinsdiscoveryservices.com/). […]

The test system of series [3] is bone. In words: Tibial bone histomorphometry, adenine model. In kind it is in vivo, male Wistar rats. The method, then:
At sacrifice the left tibia of animals of the rat model with dietary adenine/high-phosphate-induced uremia and VC was collected, fixed with 70% v/v EtOH and embedded in methyl methacrylate. The trabecular bone compartment is known to be the most metabolic active i.e. actively re-structured bone compartment in CKD. Therefore, histomorphometric and micro-computed tomography (µCT) analysis of bone was performed on the trabecular compartment. Tibial sections were Goldner-stained for histomorphometric analysis of the proximal metaphysis using the AxioVision Release 4.5 software, as described previously5. The total bone area (as percentage of total tissue area), osteoid area (as percentage of total bone area), and mineralized bone area (as percentage of total tissue area) were calculated from the primary measurements. Images of osteoclast and osteoblast were taken (Leica

For series [4], the target named is T1, Muscarinic M3 (Homo sapiens, UniProt P20309).
T1 construct: purchased Eurofins Panlabs Discovery Services Taiwan, Ltd
T1 sequence (P20309 whole entry): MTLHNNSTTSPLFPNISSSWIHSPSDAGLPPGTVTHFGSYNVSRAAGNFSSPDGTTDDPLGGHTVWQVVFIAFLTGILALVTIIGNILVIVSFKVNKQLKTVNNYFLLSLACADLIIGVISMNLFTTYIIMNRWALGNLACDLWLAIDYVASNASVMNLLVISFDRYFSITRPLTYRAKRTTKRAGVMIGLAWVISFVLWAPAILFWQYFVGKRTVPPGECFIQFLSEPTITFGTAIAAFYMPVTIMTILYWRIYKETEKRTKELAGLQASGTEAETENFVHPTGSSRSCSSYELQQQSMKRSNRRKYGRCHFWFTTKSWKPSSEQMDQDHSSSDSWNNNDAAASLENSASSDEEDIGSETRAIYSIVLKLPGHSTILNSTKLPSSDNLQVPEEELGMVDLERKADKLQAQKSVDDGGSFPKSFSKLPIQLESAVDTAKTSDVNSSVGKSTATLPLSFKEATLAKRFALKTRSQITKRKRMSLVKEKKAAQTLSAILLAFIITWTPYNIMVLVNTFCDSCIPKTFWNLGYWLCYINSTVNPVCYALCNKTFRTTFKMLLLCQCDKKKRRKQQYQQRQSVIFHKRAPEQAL
As to the kind of experiment: Off-target 252810. Format: binding. The method, then: as §1, §2
(§7) The experiments were conducted by a contract research organization (Eurofins Panlabs Discovery Services Taiwan, Ltd.) and details on the respective assays can be retrieved via the catalog number provided in Supplementary Table 11 from the company’s webpage
as §6
(§8) At sacrifice the left tibia of animals of the rat model with dietary adenine/high-phosphate-induced uremia and VC was collected, fixed with 70% v/v EtOH and embedded in methyl methacrylate. The trabecular bone compartment is known to be the most metabolic active i.e. actively re-structured bone compartment in CKD. Therefore, histomorphometric and micro-computed tomography (µCT) analysis of bone was performed on the trabecular compartment. Tibial sections were Goldner-stained for histomorphometric analysis of the proximal metaphysis using the AxioVision Release 4.5 software, as […]
(§9) described previously5. […]

The target in series [5] is T2, Peptidase, CTSG (Cathepsin G) (Homo sapiens, UniProt P08311).
T2 construct: purchased Eurofins Panlabs Discovery Services Taiwan, Ltd
T2 sequence (P08311 21-255): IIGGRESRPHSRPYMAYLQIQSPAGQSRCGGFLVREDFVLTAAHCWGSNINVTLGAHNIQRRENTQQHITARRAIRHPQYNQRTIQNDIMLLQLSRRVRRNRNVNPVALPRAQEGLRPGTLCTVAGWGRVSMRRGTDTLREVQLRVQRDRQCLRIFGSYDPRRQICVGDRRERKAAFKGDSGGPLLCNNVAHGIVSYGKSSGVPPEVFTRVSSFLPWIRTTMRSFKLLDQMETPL
In words: Off-target 112510. Format: biochemical. How it is done:
as §1, §2, §7, §6, §8, §9

The target of series [6] is T3, GABAB1A (Homo sapiens, UniProt Q9UBS5).
T3 construct: purchased Eurofins Panlabs Discovery Services Taiwan, Ltd
T3 sequence (Q9UBS5 15-961 limits assumed): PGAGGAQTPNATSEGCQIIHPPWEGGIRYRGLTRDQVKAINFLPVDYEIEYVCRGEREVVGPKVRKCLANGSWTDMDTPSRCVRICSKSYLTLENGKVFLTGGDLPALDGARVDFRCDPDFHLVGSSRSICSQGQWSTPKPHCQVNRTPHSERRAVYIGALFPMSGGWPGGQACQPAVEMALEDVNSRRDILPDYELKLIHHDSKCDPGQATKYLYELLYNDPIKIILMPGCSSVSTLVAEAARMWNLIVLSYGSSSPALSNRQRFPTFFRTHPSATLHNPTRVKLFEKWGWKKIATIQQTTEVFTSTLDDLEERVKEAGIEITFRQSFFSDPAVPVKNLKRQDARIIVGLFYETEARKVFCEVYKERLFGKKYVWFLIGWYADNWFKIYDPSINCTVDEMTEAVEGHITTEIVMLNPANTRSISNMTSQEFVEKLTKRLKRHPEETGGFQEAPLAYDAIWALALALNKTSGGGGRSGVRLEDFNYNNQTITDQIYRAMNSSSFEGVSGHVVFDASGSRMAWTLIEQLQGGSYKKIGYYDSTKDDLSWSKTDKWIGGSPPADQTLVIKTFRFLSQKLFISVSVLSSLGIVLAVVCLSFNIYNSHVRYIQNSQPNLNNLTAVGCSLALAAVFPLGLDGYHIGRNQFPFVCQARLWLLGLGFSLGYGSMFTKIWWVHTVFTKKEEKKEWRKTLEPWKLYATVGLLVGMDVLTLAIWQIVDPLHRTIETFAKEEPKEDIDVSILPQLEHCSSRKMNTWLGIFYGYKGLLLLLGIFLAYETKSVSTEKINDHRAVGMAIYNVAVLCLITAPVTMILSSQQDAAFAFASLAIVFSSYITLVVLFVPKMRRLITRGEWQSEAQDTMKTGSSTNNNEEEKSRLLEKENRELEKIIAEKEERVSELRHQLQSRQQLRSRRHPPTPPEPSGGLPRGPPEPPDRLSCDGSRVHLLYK
T3 sequence (O75899 42-941 partner): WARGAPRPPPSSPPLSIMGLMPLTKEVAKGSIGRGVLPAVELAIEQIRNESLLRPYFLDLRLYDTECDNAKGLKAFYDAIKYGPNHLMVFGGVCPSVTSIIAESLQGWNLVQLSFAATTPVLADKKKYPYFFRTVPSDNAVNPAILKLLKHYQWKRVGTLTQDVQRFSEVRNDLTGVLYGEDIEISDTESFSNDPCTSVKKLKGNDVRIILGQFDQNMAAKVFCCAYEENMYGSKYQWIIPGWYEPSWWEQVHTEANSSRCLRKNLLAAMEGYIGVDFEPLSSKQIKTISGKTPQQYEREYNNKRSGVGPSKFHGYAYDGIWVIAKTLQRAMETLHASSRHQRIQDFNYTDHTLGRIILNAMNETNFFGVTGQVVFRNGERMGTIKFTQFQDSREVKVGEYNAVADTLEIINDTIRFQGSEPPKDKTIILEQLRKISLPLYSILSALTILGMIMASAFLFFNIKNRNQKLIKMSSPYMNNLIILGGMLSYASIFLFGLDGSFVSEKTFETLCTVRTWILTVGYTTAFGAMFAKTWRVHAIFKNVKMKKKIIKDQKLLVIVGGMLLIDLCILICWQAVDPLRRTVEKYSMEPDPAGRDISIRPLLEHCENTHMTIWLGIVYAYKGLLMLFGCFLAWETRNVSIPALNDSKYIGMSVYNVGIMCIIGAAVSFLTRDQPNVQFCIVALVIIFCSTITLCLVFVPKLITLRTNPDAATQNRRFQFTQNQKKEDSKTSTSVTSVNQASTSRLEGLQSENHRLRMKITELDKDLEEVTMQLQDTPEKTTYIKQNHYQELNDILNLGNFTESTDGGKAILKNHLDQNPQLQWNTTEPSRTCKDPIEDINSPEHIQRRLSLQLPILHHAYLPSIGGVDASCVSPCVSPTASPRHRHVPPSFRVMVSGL
In words: Off-target 228610. In kind it is binding. The method, then: as §1, §2, §3, §4, §5, §6

A short description of series [7]: Plasma calcium after s.c. administration in healthy rats. The following applies: 50 mg/kg s.c., acute or sub-chronic (7 days), at tmax of 30 min. Format: in vivo, rat.
Series [8] has as its target T4, Serotonin (5-Hydroxytryptamine) 5-HT2B (Homo sapiens, UniProt P41595).
T4 construct: purchased Eurofins Panlabs Discovery Services Taiwan, Ltd
As to the kind of experiment: Off-target 271700. Format: binding. How it is done: as §1, §2, §7, §6, §8, §9

Series [9] addresses T5, Opiate μ (OP3, MOP) (Homo sapiens, UniProt P35372).
T5 construct: purchased Eurofins Panlabs Discovery Services Taiwan, Ltd
As to the kind of experiment: Off-target 260410. Format: binding. The method, then: as §1, §2, §7, §6, §8, §9

The target in series [10] is T6, Serotonin (5-Hydroxytryptamine) 5-HT1B (Homo sapiens, UniProt P28222).
T6 construct: purchased Eurofins Panlabs Discovery Services Taiwan, Ltd
T6 sequence (P28222 whole entry): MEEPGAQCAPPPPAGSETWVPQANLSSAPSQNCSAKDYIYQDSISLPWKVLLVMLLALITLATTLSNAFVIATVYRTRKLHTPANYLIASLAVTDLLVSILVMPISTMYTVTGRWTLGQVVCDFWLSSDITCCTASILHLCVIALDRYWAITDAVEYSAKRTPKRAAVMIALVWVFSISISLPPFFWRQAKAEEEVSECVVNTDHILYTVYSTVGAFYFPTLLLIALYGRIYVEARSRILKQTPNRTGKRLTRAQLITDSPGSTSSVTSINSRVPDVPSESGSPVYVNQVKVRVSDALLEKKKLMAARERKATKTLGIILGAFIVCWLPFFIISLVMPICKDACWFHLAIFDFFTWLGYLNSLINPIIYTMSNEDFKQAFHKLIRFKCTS
In words: Off-target 271230. Format: binding. The method, then: as §1, §2, §7, §6, §8, §9

T4 sequence (P41595 whole entry): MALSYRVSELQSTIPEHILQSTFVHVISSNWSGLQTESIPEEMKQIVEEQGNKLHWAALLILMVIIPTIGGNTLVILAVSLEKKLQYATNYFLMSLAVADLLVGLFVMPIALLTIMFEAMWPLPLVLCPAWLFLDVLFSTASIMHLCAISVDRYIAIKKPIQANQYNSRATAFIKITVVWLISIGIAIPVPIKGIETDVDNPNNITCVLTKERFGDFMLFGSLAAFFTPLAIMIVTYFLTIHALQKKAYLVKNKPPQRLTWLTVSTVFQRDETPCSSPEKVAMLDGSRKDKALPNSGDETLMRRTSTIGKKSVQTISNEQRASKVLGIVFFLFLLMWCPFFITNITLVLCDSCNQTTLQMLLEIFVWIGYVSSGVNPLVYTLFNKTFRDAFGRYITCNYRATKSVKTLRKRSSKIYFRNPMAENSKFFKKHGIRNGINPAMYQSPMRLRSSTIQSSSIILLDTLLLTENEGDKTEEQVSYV
T5 sequence (P35372 whole entry): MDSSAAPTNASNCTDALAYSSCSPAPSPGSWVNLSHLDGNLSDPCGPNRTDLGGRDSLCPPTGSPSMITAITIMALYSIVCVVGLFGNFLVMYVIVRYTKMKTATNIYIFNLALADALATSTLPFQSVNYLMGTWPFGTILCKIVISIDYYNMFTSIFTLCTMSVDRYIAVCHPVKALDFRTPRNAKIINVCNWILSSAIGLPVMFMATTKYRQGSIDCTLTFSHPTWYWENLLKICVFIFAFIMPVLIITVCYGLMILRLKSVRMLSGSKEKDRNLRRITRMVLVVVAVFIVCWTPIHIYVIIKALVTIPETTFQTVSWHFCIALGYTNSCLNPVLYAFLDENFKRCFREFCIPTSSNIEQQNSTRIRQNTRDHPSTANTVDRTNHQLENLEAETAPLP

One may read the AUC(0-inf) as total exposure, with the tail of the curve extrapolated. As usually defined, the CL/F is the apparent clearance, not corrected for the fraction that reaches the circulation. By Cmax is commonly meant the highest concentration seen after dosing. As a reminder, the half-life is how long it takes for the measured level to halve. Broadly, the % Inhibition is the drop in the measured response relative to a control, in per cent. A lower % Inhibition goes with a weak effect. As a reminder, the inhibition is the drop in the measured response relative to a control, in per cent. Consider `COCCOCCO[C@@H]1[C@@H](OP(=O)(O)O)[C@H](OCCOCCOC)[C@@H](OP(=O)(O)O)[C@@H](OP(=O)(O)O)[C@H]1OP(=O)(O)O` [(OEG2)2-IP4, 4,6-Di-O-(methoxy-diethyleneglycol)-myo-inositol-1,2,3,5-tetrakis(phosphate)], for which the total exposure AUC(0-inf) in series [1] is 152 µM·h. In series [1], the CL/F is 7 ± 2 mL/min/kg. Moreover, in series [1], the Cmax came out at 34 ± 8 µM. Also, the half-life in series [1] amounted to 3.73 ± 0.733 h. Further, the AUC(0-t) in series [1] (read-out: AUC0-1440 (converted)) is 151 µM·h. In addition, in series [1] (read-out: MRT0-1440 (converted)), the MRT last is 3.5 h. Further, the “% Inhibition” value in series [2] turned out to be 5%. Further, the “% bone area compared with vehicle” value in series [3] (5, 15, 50 mg/kg/day) is “significantly higher”. In addition, the “osteoblast and osteoclast morphology” value in series [3] (rat, in vivo) is recorded as “not impacted”. In addition, the osteoid area result in series [3] (treatment groups) is listed as “distinct increase in the osteoid area”. For the same compound, in series [3] (various doses tested), the “mineralized trabecular bone area” value is recorded as “unchanged mineralized trabecular bone area”. Further, the inhibition at 10 µM was -6% in series [4]; 23% in series [5]; -7% in series [6]; 1% in [8]; 11% in [9]; -4% in series [10]. The “lowering of serum calcium” value in series [7] is on record as “No significant lowering of serum calcium”.
